Experimental data from patent US20230382926A1, “COMPOUNDS AND USES THEREOF” (The University of The West Indies, priority 2022, published 2023).

Assays:
Assay in all cases: Rescue concentration, modified checkerboard MIC adjuvant assay
Type in all cases: cell-based
[1] = tested on: Pseudomonas aeruginosa MDR 5805; details: P. aeruginosa MDR 5805
Method: (§1) Reference microorganisms as well as clinical strains used to evaluate the antimicrobial adjuvant properties of SP-6azaBIM 125 and SP-6azaBIM 136 are listed in Table 3. Clinical strains of bacteria were kindly provided by the Faculty of Medical Sciences, UWI, St. Augustine, Trinidad. All bacterial cultures were cryopreserved in 30% glycerol/Brain Heart Infusion (BHI) at −80° C. Cultures were revived on BHI agar (Oxoid Ltd, England) and maintained at 4° C. until needed.
(§2) Prior to each experiment, cultures were streaked onto clean BHI agar plates and incubated at 35° C. for 24 hours. Colonies of the respective cultures were selected and inoculated in phosphate buffer saline (pH 7.5) to a 0.5 McFarland turbidity standard (equivalent to 10^8 CFU mL^−1). For inhibitory studies the bacterial suspensions were diluted 1:100 in cation-adjusted Mueller Hinton Broth (ca-MHB) (Oxoid Ltd, England). Fastidious bacteria including Streptococcus pneumoniae, Haemophilus infuenzae and Clostridium difficile were maintained on BHI agar with 5% defibrinated sheep blood and diluted in ca-MHB with 5% defibrinated sheep blood.
(§3) Antibiotic powders used in this study were purchased from Sigma Aldrich Ltd. (WI, USA). Antibiotic stock solutions were made at 50 mg mL^−1 according to Andrews (2001) and working solutions were prepared 24 h before use and stored at 4° C.
(§4) HCl salts of the of the SP-azaBIM test compounds were prepared prior to testing and stored at 4° C. Working preparations of each compound were made to 1 mg/mL in sterile deionised water.
(§5) The antibiotic adjuvant activity of the SPazaBIMs were evaluated in combination with representative antibiotics (representing 13 antibiotic classes) against the 19 pathogens strains listed in Table 3. To assess the adjuvant properties of the SP-azaBIM molecules, a modified checkerboard minimum inhibitory concentration assay was used. A fixed concentration of the respective antibiotic (susceptible breakpoint concentration) was mixed with a twofold dilution series of the test SP-azaBIM (FIG. 1). This was to determine the concentration of SP-azaBIM needed potentiate the antibiotic at a clinically susceptible breakpoint concentration. Antibiotic susceptible breakpoint concentrations for the respective bacteria were determined using Clinical Laboratory Standards Institute (CLSI) criteria M100 ED31.
(§6) In this study, only those antibiotics to which the bacterial was classed as resistant were included in the adjuvant assays. In this assay we recorded the rescue concentration of the SP-BIM for a respective antibiotic. The rescue concentration was defined as the concentration of the adjuvant that reduces the minimum inhibitory concentration (MIC) of an antibiotic to the susceptibility breakpoint.
(§7) Immediately prior to testing, the respective antibiotic and SP-azaBIM was dissolved in sterile deionised water at 20× the required test concentration. Each microtiter well was then inoculated with 180 μl of bacterial inoculum of 10^6 CFU/ml in ca-MHB, and 10 μl each if the antibiotic and SP-azaBIM was added to the plates. These plates were then incubated at 35° C. for 24 h under aerobic conditions. A similar method was followed for the fastidious pathogens except that they were cultured in ca-MHB with 5% sheep blood and 5% CO2.
(§8) Bacterial growth was visually inspected after the incubation period and the rescue concentration of the test SP-azaBIM was determined as the lowest concentration of the compound needed to reduce bacterial growth by 99.99% at the susceptible breakpoint concentration of the antibiotic. For example, CLSI states that Pseudomonas aeruginosa is susceptible to the Imipenem if the MIC is ≤2 μg mL^−1. If the bacteria can tolerate this concentration in vitro, then the bacteria has an intermediate or absolute resistance toward that antibiotic. […]

[2] = tested on: Staphylococcus aureus ATCC BAA-2312; details: S. aureus ATCC BAA-2312
Method: as §1, §2, §3, §4, §5, §6, §7, §8

[3] = tested on: Stenotrophomonas maltophilia MDR 7785; details: S. maltophilia MDR 7785
Method: as §1, §2, §3, §4, §5, §6, §7, §8

[4] = tested on: Klebsiella pneumoniae ATCC BAA-2814; details: K. pneumoniae ATCC BAA-2814
Method: as §1, §2, §3, §4, §5, §6, §7, §8

[5] = tested on: Streptococcus pneumoniae ATCC 49619; details: S. pneumoniae ATCC 49619
Method: as §1, §2, §3, §4, §5, §6, §7, §8

[6] = tested on: Escherichia coli ATCC 35150; details: E. coli ATCC 35150
Method: as §1, §2, §3, §4, §5, §6, §7, §8

[7] = tested on: Enterococcus faecalis ATCC 51299; details: E. faecalis ATCC 51299
Method: as §1, §2, §3, §4, §5, §6, §7, §8

[8] = tested on: Klebsiella pneumoniae ATCC 49472; details: K. pneumoniae ATCC 49472
Method: as §1, §2, §3, §4, §5, §6, §7, §8

[9] = Amox at susceptible breakpoint 8 μg mL^−1
[10] = Gen at susceptible breakpoint 4 μg mL^−1
[11] = Imi at susceptible breakpoint 2 μg mL^−1
[12] = Mero at susceptible breakpoint 2 μg mL^−1
[13] = Tri at susceptible breakpoint 8 μg mL^−1
[14] = Ceph at susceptible breakpoint 8 μg mL^−1
[15] = Chl at susceptible breakpoint 8 μg mL^−1
[16] = Amp at susceptible breakpoint 8 μg mL^−1
[17] = Col at susceptible breakpoint 8 μg mL^−1
[18] = Dox at susceptible breakpoint 4 μg mL^−1
[19] = Imi at susceptible breakpoint 1 μg mL^−1

Oc1ccc(C(c2c[nH]c3cnccc23)c2c[nH]c3cnccc23)cc1 [SP-6azaBIM 136, 4-(bis(1H-pyrrolo[2,3-c]pyridin-3-yl)methyl)phenol]
128 µg/mL: Rescue concentration, Van (2) ([2]; Van at susceptible breakpoint 2 μg mL^−1)
>128 µg/mL: Rescue concentration, Azi (2) ([2]; Azi at susceptible breakpoint 2 μg mL^−1) | Rescue concentration, Gen (4) [2, 10] | Rescue concentration, Pen (0.12) ([2]; Pen at susceptible breakpoint 0.12 μg mL^−1) | Rescue concentration, Tri (8) [2, 13] | Rescue concentration, Tri (2) ([3]; Tri at susceptible breakpoint 2 μg mL^−1) | Rescue concentration, Amox (2) ([5]; Amox at susceptible breakpoint 2 μg mL^−1) | Rescue concentration, Ery (0.25) ([5]; Ery at susceptible breakpoint 0.25 μg mL^−1) | Rescue concentration, Imi (0.12) ([5]; Imi at susceptible breakpoint 0.12 μg mL^−1) | Rescue concentration, Amp (8) [7, 16] | Rescue concentration, Chl (8) [7, 15] | Rescue concentration, Dox (4) [7, 18] | Rescue concentration, Ery (0.5) ([7]; Ery at susceptible breakpoint 0.5 μg mL^−1) | Rescue concentration, Tri (8) [7, 13] | Rescue concentration, Van (4) ([7]; Van at susceptible breakpoint 4 μg mL^−1)
32 µg/mL: Rescue concentration, Cef (8) ([3]; Cef at susceptible breakpoint 8 μg mL^−1) | Rescue concentration, Imi (2) [3, 11] | Rescue concentration, Mero (2) [3, 12] | Rescue concentration, Amp (8) [4, 16] | Rescue concentration, Chl (8) [4, 15] | Rescue concentration, Amox (8) [8, 9] | Rescue concentration, Col (8) [8, 17] | Rescue concentration, Mero (1) ([8]; Mero at susceptible breakpoint 1 μg mL^−1)
16 µg/mL: Rescue concentration, Chl (8) [3, 15] | Rescue concentration, Cip (2) ([3]; Cip at susceptible breakpoint 2 μg mL^−1) | Rescue concentration, Amox (8) [4, 9] | Rescue concentration, Azi (16) ([4]; Azi at susceptible breakpoint 16 μg mL^−1) | Rescue concentration, Ceph (8) [4, 14] | Rescue concentration, Col (8) [4, 17] | Rescue concentration, Cip (0.25) ([6]; Cip at susceptible breakpoint 0.25 μg mL^−1) | Rescue concentration, Imi (1) [8, 19] | Rescue concentration, Pol B (8) ([8]; Pol B at susceptible breakpoint 8 μg mL^−1)
4 µg/mL: Rescue concentration, Col (2) ([1]; Col at susceptible breakpoint 2 μg mL^−1) | Rescue concentration, Gen (4) [1, 10] | Rescue concentration, Pol B (2) ([1]; Pol B at susceptible breakpoint 2 μg mL^−1) | Rescue concentration, Aze (4) ([4]; Aze at susceptible breakpoint 4 μg mL^−1) | Rescue concentration, Dox (4) [4, 18] | Rescue concentration, Gen (4) [4, 10] | Rescue concentration, Imi (1) [4, 19] | Rescue concentration, Tet (4) ([4]; Tet at susceptible breakpoint 4 μg mL^−1) | Rescue concentration, Dox (4) [6, 18] | Rescue concentration, Imi (1) [6, 19]
2 µg/mL: Rescue concentration, Amox (8) [1, 9] | Rescue concentration, Imi (2) [1, 11] | Rescue concentration, Mero (2) [1, 12]
8 µg/mL: Rescue concentration, Cef (16) ([4]; Cef at susceptible breakpoint 16 μg mL^−1) | Rescue concentration, Amp (8) [6, 16]
64 µg/mL: Rescue concentration, Ceph (8) [3, 14] | Rescue concentration, Gen (4) [3, 10] | Rescue concentration, Amp (8) [8, 16]
